The target of the experiment is Wee1 (Homo sapiens (Human), UniProt P30291). The experiment can be described thus: In vitro enzymatic inhibitory activity (33P-ATP filter-binding kinase assay, MBP substrate). It is filed as biochemical. The note with it: Wee-1 150 nM, MBP 20 μM. The procedure:
The compounds of the present invention for experimental use were all self-prepared, and their chemical names and structural formulas are shown in the preparation embodiments of the respective compounds. The experimental tests were carried out in Reaction Biology Corporation, USA, and the experimental results were provided by the company. Basic reaction buffer: 20 mM hydroxyethylpiperazine ethanesulfuric acid (pH 7.5), 10 mM magnesium chloride, 1 mM EGTA, 0.02% Brij35, 0.02 mg/mL bovine serum albumin, 0.1 mM Na3VO4, 2 mM DTT, 1% DMSO Enzyme: Wee-1 concentration is 150 nM Matrix: MBP concentration is 20 μM The tested compound was formulated into a 5 mM solution with 100% DMSO, and a 10 points 3-fold gradient dilution was performed with DMSO through an automated pipetting station epMotion 5070. 1. Fresh matrix configuration reaction buffer was prepared; 2. The Wee-1 was added into the matrix solution and shaked gently; 3. DMSO solution of the compound were added into the kinase reaction mixture using an acoustic technique (Echo 550; nanoliter range) and incubated for 20 minutes at room temperature; 4. ^33P-ATP (specific activity, 10 μCi/μL) was added into the reaction mixture to stimulate the reaction; 5. Incubated for 2 hours at room temperature; 6. Kinase activity was detected by filter-binding method.

As usually defined, the IC50 is the point on the concentration scale where inhibition reaches its midpoint. Low readings indicate greater potency, high ones weaker potency.

Sequence of Wee1 (P30291 whole entry): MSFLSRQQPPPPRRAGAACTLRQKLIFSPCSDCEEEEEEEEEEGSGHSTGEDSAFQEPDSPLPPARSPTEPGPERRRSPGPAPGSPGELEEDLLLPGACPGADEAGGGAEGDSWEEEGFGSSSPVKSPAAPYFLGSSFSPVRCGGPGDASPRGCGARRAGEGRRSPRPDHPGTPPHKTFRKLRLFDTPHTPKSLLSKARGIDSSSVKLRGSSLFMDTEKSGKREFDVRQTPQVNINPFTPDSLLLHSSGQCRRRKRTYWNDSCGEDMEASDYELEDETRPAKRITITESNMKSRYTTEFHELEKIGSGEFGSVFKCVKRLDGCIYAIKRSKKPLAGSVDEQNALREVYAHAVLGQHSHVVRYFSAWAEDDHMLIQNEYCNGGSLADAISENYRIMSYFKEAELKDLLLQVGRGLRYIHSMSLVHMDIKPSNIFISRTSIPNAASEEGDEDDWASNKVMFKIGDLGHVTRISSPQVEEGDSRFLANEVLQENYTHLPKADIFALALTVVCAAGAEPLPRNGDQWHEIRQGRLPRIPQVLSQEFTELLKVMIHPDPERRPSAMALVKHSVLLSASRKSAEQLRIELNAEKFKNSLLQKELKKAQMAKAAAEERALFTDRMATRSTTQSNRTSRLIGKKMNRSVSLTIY

`C=CCn1c(=O)c2cnc(Nc3ccc(N4CCC5(CCN(C)CC5)CC4)cc3OC)nc2n1-c1cccc(C(C)(C)O)n1` [Embodiment 37, 2-allyl-1-(6-(2-hydroxypropan-2-yl)pyridin-2-yl)-6((2-methoxy-4-(9-methyl-3,9-diazaspiro[5.5]undecan-3-yl)phenyl)amino)-1H-pyrazolo[3,4-d]pyrimidin-3(2H)-one] yielded a 50% inhibitory concentration (IC50) of 328 nM. On to `C=CCn1c(=O)c2cnc(Nc3ccc(N4CCC5(CCN(C)CC5)CC4)cc3)nc2n1-c1cccc(C2(C)CC2)n1` [Compound 68, 2-allyl-6-((4-(9-methyl-3,9-diazaspiro[5.5]undecan-3-yl)phenyl)amino)-1-(6-(1-methylcyclopropyl)pyridin-2-yl)-1H-pyrazolo[3,4-d]pyrimidin-3(2H)-one], for which the IC50 was determined as 30.4 nM.

`C=CCn1c(=O)c2cnc(Nc3ccc(N4CCC5(CCN(C)CC5)CC4)cc3)nc2n1-c1cccc(OC(C)C)n1` [Embodiment 48, 2-allyl-1-(6-isopropoxypyridin-2-yl)-6-((4-(9-methyl-3,9-diazaspiro[5.5]undecan-3-yl)phenyl)amino)-1H-pyrazolo[3,4-d]pyrimidin-3(2H)-one] displayed a half-inhibitory concentration (IC50) of 6.3 nM. The compound `C=CCn1c(=O)c2cnc(Nc3ccc(N4CCC5(CCN(C)CC5)CC4)cc3)nc2n1-c1ncccn1` [Embodiment 4, 2-allyl-6-((4-(9-methyl-3,9-diazaspiro[5.5]undecan-3-yl)phenyl)amino)-1-(pyrimidin-2-yl)-1H-pyazolo[3,4-d]pyrimidine-3(2H)-one] registered an IC50 of 251 nM. Turning to `C=CCn1c(=O)c2cnc(Nc3ccc(N4CCC5(CCN(C)CC5)CC4)cc3)nc2n1-c1cccc(N2CCCC2=O)n1` [Embodiment 44], the concentration for half-maximal inhibition (IC50) turned out to be 12.6 nM. The compound `C=CCn1c(=O)c2cnc(Nc3ccc(N4CCC5(CCN(CCC#N)CC5)CC4)cc3)nc2n1-c1cccc(C(C)(C)O)n1` [Embodiment 62, 3-(9-(4((2-allyl-1(6-(2-hydroxypropan-2-yl)pyridin-2-yl)-3-oxo-2,3-dihydro-1H-pyrazolo[3,4-d]pyrimidin-6-yl)amino)phenyl)-3,9-diazaspiro[5.5]undecan-3-yl)propionitrile] returned an IC50 of 36.1 nM.

`C=CCn1c(=O)c2cnc(Nc3ccc(N4CCC5(CCN(C)CC5)CC4)cc3)nc2n1-c1cccc(OC2CC2)n1` [Embodiment 50, 2-allyl-1-(6-cyclopropoxypyridin-2-yl)-6-((4-(9-methyl-3,9-diazaspiro[5.5]undecan-3-yl)phenyl)amino)-1H-pyrazolo[3,4-d]pyrimidin-3(2H)-one] returned a half-maximal inhibitory concentration (IC50) of 2.5 nM. As for `C=CCn1c(=O)c2cnc(Nc3ccc(N4CCC5(CCN(C)CC5)CC4)cc3)nc2n1-c1cccc(C2(F)CC(F)(F)C2)n1` [Compound 65, 2-allyl-6((4-(9-methyl-3,9-diazaspiro[5.5]undecan-3-yl)phenyl)amino)-1-(6-(1,3,3-trifluorocyclobutyl)pyridin-2-yl)-1H-pyrazolo[3,4-d]pyrimidin-3(2H)-one], the IC50 was 41.6 nM. The value for `C=CCn1c(=O)c2cnc(Nc3ccc(N4CCC5(CCN(C)CC5)CC4)c(F)c3)nc2n1-c1cccc(C(C)(C)O)n1` [Embodiment 34, 2-allyl-6((3-fluoro-4-(9-methyl-3,9-diazaspiro[5.5]undecan-3-yl)phenyl)amino)-1-(6-(2-hydroxypropan-2-yl)pyridin-2-yl)-1H-pyrazolo[3,4-d]pyrimidin-3(2H)-one] was 120 nM; that for `C=CCn1c(=O)c2cnc(Nc3ccc(N4CCC5(CCN(C)CC5)CC4)cc3)nc2n1-c1cccc(C(C)C)n1` [Compound 67] was 12.8 nM; that for `C=CCn1c(=O)c2cnc(Nc3ccc(N4CCC5(CCN(C)CC5)CC4)cc3)nc2n1-c1cccc(OCC)n1` [Embodiment 51, 2-allyl-1-(6-ethoxypyridin-2-yl)-6-((4-(9-methyl-3,9-diazaspiro[5.5]undecan-3-yl)phenyl)amino)-1H-pyrazolo[3,4-d]pyrimidin-3(2H)-one] was 2.8 nM. Compound `CCn1c(=O)c2cnc(Nc3ccc(N4CCC5(CCN(C)CC5)CC4)cc3)nc2n1-c1ccccc1` [Embodiment 19, 2-ethyl-6-((4-(9-methyl-3,9-diazaspiro[5.5]undecan-3-yl)phenyl)amino)-1-phenyl-1H-pyrazolo[3,4-d](2H)-one] yielded an IC50 of 83.2 nM.

`C=CCn1c(=O)c2cnc(Nc3ccc(N4CCC5(CCN(C)CC5)CC4)cc3)nc2n1-c1cccc(OC)n1` [Embodiment 47, 2-allyl-1-(6-methoxypyridin-2-yl)-6-((4-(9-methyl-3,9-diazaspiro[5.5]undecan-3-yl)phenyl)amino)-1H-pyrazolo[3,4-d]pyrimidin-3(2H)-one]: the half-maximal inhibitory concentration (IC50) was 3 nM. With `C=CCn1c(=O)c2cnc(Nc3ccc(N4CCC5(CCN(C)CC5)CC4)cc3)nc2n1-c1cccc(C(N)=O)c1` [Embodiment 16, 3-(2-allyl-6-((4-(9-methyl-3,9-diazaspiro[5.5]undecan-3-yl)phenyl)amino)-3-oxo-2,3-dihydro-1H-pyrazolo[3,4-d]pyrimidin-1-yl)benzamide], the IC50 was 52.8 nM. `C=CCn1c(=O)c2cnc(Nc3ccc(N4CCC5(CCN(C)CC5)CC4)cc3)nc2n1-c1cccc([C@@](C)(O)C(F)(F)F)n1` [Compound 74, (R)-2-allyl-6-((4-(9-methyl-3,9-diazaspiro[5.5]undecan-3-yl)phenyl)amino)-1-(6-(1,1,1-trifluoro-2-hydroxypropan-2-yl)pyridin-2-yl)-1H-pyrazolo[3,4-d]pyrimidin-3(2H)-one]: the half-maximal inhibitory concentration (IC50) came out at 13 nM.

Turning to `C=CCn1c(=O)c2cnc(Nc3ccc(N4CCC5(CCN(C)CC5)CC4)cc3C)nc2n1-c1cccc(C(C)(C)O)n1` [Embodiment 35, 2-allyl-1-(6-(2-hydroxypropan-2-yl)pyridin-2-yl)-6((2-methyl-4-(9-methyl-3,9-diazaspiro[5.5]undecan-3-yl)phenyl)amino)-1H-pyrazolo[3,4-d]pyrimidine-3(2H)-one], the 50% inhibitory concentration (IC50) came to 241 nM. `C=CCn1c(=O)c2cnc(Nc3ccc(N4CCC5(CCN(C)CC5)CC4)cc3)nc2n1-c1cccc(N2CCN(C)C2=O)n1` [Embodiment 56]: the 50% inhibitory concentration (IC50) was 74 nM. Regarding `C=CCn1c(=O)c2cnc(Nc3ccc(N4CCC5(CCN(CC#N)CC5)CC4)cc3)nc2n1-c1cccc(C(C)(C)O)n1` [Compound 63, 2-(9-(4((2-allyl-1(6-(2-hydroxypropan-2-yl)pyridin-2-yl)-3-oxo-2,3-dihydro-1H-pyrazolo[3,4-d]pyrimidin-6-yl)amino)phenyl)-3,9-diazaspiro[5.5]undecan-3-yl)acetonitrile], the concentration for half-maximal inhibition (IC50) is 8.3 nM. For `C=CCn1c(=O)c2cnc(Nc3ccc(N4CCC5(CCNCC5)CC4)cc3)nc2n1-c1cccc(C2(F)COC2)n1` [Compound 77, 6-((4-(-3,9-diazaspiro[5.5]undecan-3-yl)phenyl)amino)-2-allyl-1-(6-(3-fluoro-oxetan-3-yl)pyridin-2-yl)-1H-pyrazolo[3,4-d]pyrimidin-3(2H)-one], the IC50 was determined as 9 nM. With `C=CCn1c(=O)c2cnc(Nc3ccc(N4CCC5(CCN(C)CC5)CC4)cc3)nc2n1-c1cccc(N2CC(F)(F)C2)n1` [Compound 72], the IC50 came to 8.2 nM. The compound `C=CCn1c(=O)c2cnc(Nc3ccc(N4CCC5(CCN(C)CC5)CC4)cc3)nc2n1-c1cccc(C2(O)CCC2)n1` [Embodiment 40, 2-allyl-1-(6-(1-hydroxycyclobutyl)pyridin-2-yl)-6-((4-(9-methyl-3,9-diazaspiro[5.5]undecan-3-yl)phenyl)amino)-1H-pyrazolo[3,4-d]pyrimidin-3(2H)-one] registered a half-inhibitory concentration (IC50) of 30.7 nM. In the case of `C=CCn1c(=O)c2cnc(Nc3ccc(N4CCC5(CCN(C)CC5)CC4)cc3)nc2n1-c1cccc(C(=O)NC)n1` [Embodiment 14, 6-(2-allyl-6-((4-(9-methyl-3,9-diazaspiro[5.5]undecan-3-yl)phenyl)amino)-3-oxo-2,3-dihydro-1H-pyrazolo[3,4-d]pyrimidin-1-yl)-N-methylpicolinamide], the IC50 is 47.8 nM. Compound `C=CCn1c(=O)c2cnc(Nc3ccc(N4CCC5(CCN(C)CC5)CC4)cc3)nc2n1-c1cccc(P(C)(C)=O)n1` [Embodiment 59, 2-allyl-1-(6-(dimethylphosphory)pyridin-2-yl)-6-((4-(9-methyl-3,9-diazaspiro[5.5]undecan-3-yl)phenyl)amino)-1H-pyrazolo[3,4-d]pyrimidin-3(2H)-one] yielded a half-maximal inhibitory concentration (IC50) of 22.6 nM. As to `C=CCn1c(=O)c2cnc(Nc3ccc(N4CCC5(CCN(C)CC5)CC4)c(C)c3)nc2n1-c1cccc(C(C)(C)O)n1` [Embodiment 36, 2-allyl-1-(6-(2-hydroxypropan-2-yl)pyridin-2-yl)-6((3-methyl-4-(9-methyl-3,9-diazaspiro[5.5]undecan-3-yl)phenyl)amino)-1H-pyrazolo[3,4-d]pyrimidine-3(2H)-one], the IC50 is 57.1 nM.
